The source of these data is ChEMBL document CHEMBL3576838, “Synthesis and in vitro and in vivo biological evaluation of substituted nitroquinoxalin-2-ones and 2,3-diones as novel trichomonacidal agents” (Eur J Med Chem, 2015).

For one data set, the system named is Mus musculus. Briefly: Toxicity against NMRI mouse infected with Trichomonas vaginalis C-1:NIH trophozoites assessed as animal death at 50 to 100 mg/kg, po administered for 7 days from day 3 to day 10 post-infection measured at day 15 post-infection. Type of data set: organism-based. Conditions: in vivo, 168 h.
Data set [1] has as its system Trichomonas vaginalis. Briefly: Trichomonicidal activity against Trichomonas vaginalis JH31A#4 trophozite assessed as inhibition of parasite growth at 150 uM after 24 hrs by resazurin redox dye based fluorimetric microtiter method. In kind it is functional. Conditions: JH31A#4, 24 h. On the technique in general: The colour change of resazurin is a common sign of viable cells or microbes.

The subject of data set [2] is Trichomonas vaginalis. Nature of the data set: Trichomonicidal activity against Trichomonas vaginalis JH31A#4 trophozite assessed as inhibition of parasite growth at 75 uM after 24 hrs by resazurin redox dye based fluorimetric microtiter method. In kind it is functional. Conditions: JH31A#4, 24 h.
Data set [3] relates to Trichomonas vaginalis. Nature of the data set: Trichomonicidal activity against Trichomonas vaginalis JH31A#4 trophozite assessed as inhibition of parasite growth at 9.37 uM after 24 hrs by resazurin redox dye based fluorimetric microtiter method. In kind it is functional. Conditions: JH31A#4, 24 h.
A further data set has as its system Vero. Briefly: Cytotoxicity against African green monkey Vero cells at 300 uM after 24 hrs by resazurin redox dye based fluorimetric microtiter method. Type of data set: cell-based. Conditions: chlorocebus sabaeus.
In data set [4] the test system is Trichomonas vaginalis. Briefly: Trichomonicidal activity against Trichomonas vaginalis C-1:NIH trophozoites infected in NMRI mouse assessed as reduction of pathogenicity at 50 mg/kg, po administered for 7 days from day 3 to day 10 post-infection measured at day 15 post-infection. Type of data set: functional.
The subject of data set [5] is Trichomonas vaginalis. Nature of the data set: Trichomonicidal activity against Trichomonas vaginalis JH31A#4 trophozite assessed as inhibition of parasite growth at 10 ug/ml after 24 hrs by resazurin redox dye based fluorimetric microtiter method. Type of data set: functional. Conditions: JH31A#4, 24 h, read-out: GI.
Data set [6] has as its system Trichomonas vaginalis. Nature of the data set: Trichomonicidal activity against Trichomonas vaginalis C-1:NIH trophozoites infected in NMRI mouse assessed as reduction of pathogenicity at 100 mg/kg, po administered for 7 days from day 3 to day 10 post-infection measured at day 15 post-infection. In kind it is functional.
For data set [7], the system named is Trichomonas vaginalis. Briefly: Trichomonicidal activity against Trichomonas vaginalis JH31A#4 trophozite assessed as inhibition of parasite growth after 24 hrs by resazurin redox dye based fluorimetric microtiter method. Conditions: JH31A#4, 24 h. Type of data set: functional, organism-based.
In data set [8] the test system is Trichomonas vaginalis. Nature of the data set: Trichomonicidal activity against Trichomonas vaginalis JH31A#4 trophozite assessed as inhibition of parasite growth at 37.5 uM after 24 hrs by resazurin redox dye based fluorimetric microtiter method. In kind it is functional. Conditions: JH31A#4, 24 h.
Data set [9] can be described thus: Selectivity index, ratio of CC50 for African green monkey Vero cells to IC50 for Trichomonas vaginalis JH31A#4 trophozite. Type of data set: functional.
The test system of data set [10] is Trichomonas vaginalis. Briefly: Trichomonicidal activity against Trichomonas vaginalis JH31A#4 trophozite assessed as inhibition of parasite growth at 18.75 uM after 24 hrs by resazurin redox dye based fluorimetric microtiter method. In kind it is functional. Conditions: JH31A#4, 24 h.
In data set [11] the test system is Trichomonas vaginalis. Briefly: Trichomonicidal activity against Trichomonas vaginalis JH31A#4 trophozite assessed as inhibition of parasite growth at 300 uM after 24 hrs by resazurin redox dye based fluorimetric microtiter method. Type of data set: functional. Conditions: JH31A#4, 24 h.
A short description of data set [12]: Cytotoxicity against African green monkey Vero cells assessed as inhibition of cell growth after 24 hrs by resazurin redox dye based fluorimetric microtiter method. Conditions: chlorocebus sabaeus.
Data set [13] relates to Trichomonas vaginalis. Nature of the data set: Trichomonicidal activity against Trichomonas vaginalis C-1:NIH trophozoites infected in NMRI mouse assessed as reduction of pathogenicity at 25 mg/kg/day, po administered for 7 days from day 3 to day 10 post-infection measured at day 15 post-infection. In kind it is functional.

As to `Cl.O=C1CN(CCCN2CCCCC2)c2ccc([N+](=O)[O-])cc2N1`, the Activity entry was “Non-toxic” in the data set with Mus musculus and 3.26% in the data set on Vero. The inhibition at 150 µM in the data set with Trichomonas vaginalis [1] was 98.9%. Further, the inhibition at 75 µM in the data set on Trichomonas vaginalis [2] is 82.4%. For the same molecule, the inhibition at 9.37 µM in the data set with Trichomonas vaginalis [3] worked out at 24.2%. Further, the inhibition in vivo at 50 mg/kg with Trichomonas vaginalis [4] worked out at 50.7%. In the data set with Trichomonas vaginalis [5], the inhibition of growth at 10 µg/mL came out at 7%. Further, in the data set with Trichomonas vaginalis [6], the inhibition in vivo at 100 mg/kg worked out at 46.1%. Moreover, in the data set with Trichomonas vaginalis [7], the IC50 was 18.3 µM. For the same molecule, the inhibition at 37.5 µM with Trichomonas vaginalis [8] came out at 70.3%. Besides, in data set [9], the “Ratio CC50/IC50” value was more than 10. Further, in the data set with Trichomonas vaginalis [10], the inhibition at 18.75 µM came to 58.4%. For the same molecule, the inhibition at 300 µM in the data set on Trichomonas vaginalis [11] was 100%. For the same molecule, the CC50 at 24 h in [12] was more than 300 µM.

As to `Cc1ncc([N+](=O)[O-])n1CCO` [METRONIDAZOLE], the inhibition at 150 µM with Trichomonas vaginalis [1] is 100%. Further, the inhibition at 75 µM in the data set with Trichomonas vaginalis [2] stood at 100%. Moreover, the inhibition at 9.37 µM in the data set on Trichomonas vaginalis [3] came to 82.7%. The Activity in the data set on Vero is 0%. The IC50 in the data set on Trichomonas vaginalis [7] came out at 4.16 µM. Also, the inhibition in vivo at 25 mg/kg/day with Trichomonas vaginalis [13] turned out to be 94%. For the same molecule, the inhibition at 37.5 µM in the data set with Trichomonas vaginalis [8] is 99.4%. Besides, the “Ratio CC50/IC50” value in [9] is more than 10. In the data set on Trichomonas vaginalis [10], the inhibition at 18.75 µM was 96%. Further, in the data set on Trichomonas vaginalis [11], the inhibition at 300 µM stood at 100%. In addition, the CC50 at 24 h in [12] is more than 600 µM.

As for `CN(C)CCN1CC(=O)N(C)c2cc([N+](=O)[O-])ccc21`, the inhibition at 150 µM in the data set on Trichomonas vaginalis [1] came out at 99.9%. In addition, the inhibition at 75 µM with Trichomonas vaginalis [2] was 73.9%. Besides, the inhibition at 9.37 µM in the data set with Trichomonas vaginalis [3] was determined as 1.36%. Further, the Activity in the data set with Vero is listed as 17.29%. Moreover, in the data set on Trichomonas vaginalis [5], the inhibition of growth at 10 µg/mL was determined as 7%. Also, the IC50 with Trichomonas vaginalis [7] was 50.7 µM. In the data set on Trichomonas vaginalis [8], the inhibition at 37.5 µM turned out to be 20.4%. In addition, the “Ratio CC50/IC50” value in data set [9] was 12.77. For the same molecule, the inhibition at 18.75 µM in the data set on Trichomonas vaginalis [10] was 6.7%. The inhibition at 300 µM in the data set on Trichomonas vaginalis [11] was found to be 100%. Moreover, the CC50 at 24 h in data set [12] worked out at 648 µM.

A word on the inhibition: it is the share of the control response that was lost under treatment. As usually defined, the inhibition in vivo is the share of the control response that was lost under treatment. In general, IC50 refers to the midpoint of a concentration-inhibition curve. Broadly, the CC50 is the concentration giving 50% cytotoxicity.
